Laboratory results: ChEMBL document CHEMBL1201862, “PubChem BioAssay data set” (2004)
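Cultured in 96-well plates, cells were exposed to test compound for 48 hours across five concentrations. Here, GI50 denotes the concentration required for 50% inhibition of growth.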 The source made the active and inactive calls. Rule as the data show it: active = GI50 up to about 1.1 µM and inactive = higher.

Assays:
Test in all cases: NCI anticancer screen, dose series, 48 h
SF-539 = tested on: SF-539
OVCAR-3 = tested on: OVCAR-3
A549 = tested on: A549
NCI-H522 = tested on: NCI-H522
UACC-257 = tested on: UACC-257
NCI-H226 = tested on: NCI-H226
NCI-H23 = tested on: NCI-H23
OVCAR-4 = tested on: OVCAR-4
PC-3 = tested on: PC-3
SNB-75 = tested on: SNB-75
UO-31 = tested on: UO-31
SK-MEL-28 = tested on: SK-MEL-28
BT-549 = tested on: BT-549
MDA-MB-435 = tested on: MDA-MB-435
UACC-62 = tested on: UACC-62
HOP-92 = tested on: HOP-92
TK-10 = tested on: TK-10
ACHN = tested on: ACHN
CAKI-1 = tested on: CAKI-1
HL-60 = tested on: HL-60
SN12C = tested on: SN12C
NCI-H460 = tested on: NCI-H460
EKVX = tested on: EKVX
RPMI-8226 = tested on: RPMI-8226
HT-29 = tested on: HT-29
SK-MEL-5 = tested on: SK-MEL-5
786-0 = tested on: 786-0
OVCAR-5 = tested on: OVCAR-5
HCT-15 = tested on: HCT-15
HCC 2998 = tested on: HCC 2998
MCF7 = tested on: MCF7
COLO 205 = tested on: COLO 205
MDA-MB-231 = tested on: MDA-MB-231
IGROV-1 = tested on: IGROV-1
NCI/ADR-RES = tested on: NCI/ADR-RES
OVCAR-8 = tested on: OVCAR-8
U-251 = tested on: U-251
Hs-578T = tested on: Hs-578T
SNB-19 = tested on: SNB-19
HCT-116 = tested on: HCT-116
M14 = tested on: M14
SW-620 = tested on: SW-620
RXF 393 = tested on: RXF 393
Malme-3M = tested on: Malme-3M
HOP-62 = tested on: HOP-62
K562 = tested on: K562
MDA-N = tested on: MDA-N
SF-268 = tested on: SF-268
SR = tested on: SR
LOX IMVI = tested on: LOX IMVI
SK-OV-3 = tested on: SK-OV-3
SF-295 = tested on: SF-295
DU-145 = tested on: DU-145
SK-MEL-2 = tested on: SK-MEL-2
A498 = tested on: A498
MOLT-4 = tested on: MOLT-4
T47D = tested on: T47D
KM12 = tested on: KM12
CCRF-CEM = tested on: CCRF-CEM

Measured: GI50

COc1ccc(NC(S)=Nc2ccccc2)cc1
inactive: SF-539 > 100 µM | OVCAR-3 > 100 µM | A549 > 100 µM | NCI-H522 > 100 µM | UACC-257 39.4 µM | NCI-H226 > 100 µM | NCI-H23 > 100 µM | OVCAR-4 > 100 µM | PC-3 > 100 µM | SNB-75 > 100 µM | UO-31 > 100 µM | SK-MEL-28 > 100 µM | BT-549 > 100 µM | MDA-MB-435 > 100 µM | UACC-62 > 100 µM | HOP-92 > 100 µM | TK-10 > 100 µM | ACHN > 100 µM | CAKI-1 > 100 µM | HL-60 24.2 µM | SN12C > 100 µM | NCI-H460 > 100 µM | EKVX 96.4 µM | RPMI-8226 > 100 µM | HT-29 > 100 µM | SK-MEL-5 > 100 µM | 786-0 > 100 µM | OVCAR-5 > 100 µM | HCC 2998 > 100 µM | MCF7 > 100 µM | COLO 205 > 100 µM | MDA-MB-231 > 100 µM | IGROV-1 > 100 µM | NCI/ADR-RES > 100 µM | OVCAR-8 > 100 µM | U-251 > 100 µM | Hs-578T > 100 µM | SNB-19 > 100 µM | HCT-116 > 100 µM | M14 > 100 µM | SW-620 > 100 µM | RXF 393 98.2 µM | Malme-3M > 100 µM | HOP-62 > 100 µM | K562 > 100 µM | MDA-N > 100 µM | SF-268 > 100 µM | SR > 100 µM | LOX IMVI > 100 µM | SK-OV-3 > 100 µM | SF-295 > 100 µM | DU-145 > 100 µM | SK-MEL-2 > 100 µM | A498 > 100 µM
> 100 µM: HCT-15

Cc1cc(C)nc(NC(=S)Nc2ccccc2Cl)c1
> 100 µM: HCT-15
inactive: SF-539 > 100 µM | OVCAR-3 > 100 µM | A549 > 100 µM | NCI-H522 > 100 µM | UACC-257 > 100 µM | NCI-H226 > 100 µM | OVCAR-4 > 100 µM | PC-3 > 100 µM | SNB-75 73.1 µM | UO-31 > 100 µM | SK-MEL-28 > 100 µM | BT-549 > 100 µM | MDA-MB-435 > 100 µM | UACC-62 > 100 µM | TK-10 > 100 µM | CAKI-1 > 100 µM | HL-60 > 100 µM | MOLT-4 > 100 µM | SN12C > 100 µM | NCI-H460 > 100 µM | EKVX > 100 µM | T47D > 100 µM | RPMI-8226 > 100 µM | KM12 > 100 µM | HT-29 > 100 µM | SK-MEL-5 > 100 µM | 786-0 > 100 µM | OVCAR-5 > 100 µM | MCF7 > 100 µM | COLO 205 > 100 µM | IGROV-1 > 100 µM | NCI/ADR-RES > 100 µM | OVCAR-8 > 100 µM | U-251 > 100 µM | Hs-578T > 100 µM | CCRF-CEM > 100 µM | SNB-19 > 100 µM | HCT-116 > 100 µM | M14 > 100 µM | SW-620 > 100 µM | RXF 393 > 100 µM | Malme-3M > 100 µM | HOP-62 > 100 µM | K562 > 100 µM | MDA-N > 100 µM | SF-268 > 100 µM | SR > 100 µM | LOX IMVI > 100 µM | SK-OV-3 > 100 µM | SF-295 > 100 µM | DU-145 > 100 µM | SK-MEL-2 > 100 µM | A498 > 100 µM
